Data reported in PubChem BioAssay AID330 (DTP/NCI, 2004).
Where “and” joins values, the source holds several entries; their conditions need not be identical. Equal values may be shown once. Toxic doses and inconclusive results are not listed.

System: P388 leukemia ip, CD2F1 mice, survival T/C
Test: NCI In Vivo Anticancer Drug Screen. Data for tumor model P388 Leukemia (intraperitoneal) in CD2F1 (CDF1) mice
Details: endpoint: median survival time, higher = longer survival
Method in brief: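 Mice carrying the transplanted tumor received test compound or vehicle. Survival was recorded in each group, and the value is the treated-group measurement divided by that of the vehicle-treated control group.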

[1] = dose: 100.0 mg/kg/injection, schedule: Q04DX003 (ip), vehicle: saline
[2] = dose: 200.0 mg/kg/injection, schedule: Q04DX003 (ip), vehicle: saline
[3] = dose: 400.0 mg/kg/injection, schedule: Q04DX003 (ip), vehicle: saline
[4] = dose: 12.5 mg/kg/injection, schedule: Q01DX009 (ip), vehicle: Klucel (hydroxypropylcellulose) (HPC)
[5] = dose: 25.0 mg/kg/injection, schedule: Q01DX009 (ip), vehicle: Klucel (hydroxypropylcellulose) (HPC)
[6] = dose: 60.0 mg/kg/injection, schedule: Q01DX005 (ip), vehicle: Klucel (hydroxypropylcellulose) (HPC)
[7] = dose: 120.0 mg/kg/injection, schedule: Q01DX005 (ip), vehicle: Klucel (hydroxypropylcellulose) (HPC)
[8] = dose: 240.0 mg/kg/injection, schedule: Q01DX005 (ip), vehicle: Klucel (hydroxypropylcellulose) (HPC)
[9] = dose: 100.0 mg/kg/injection, schedule: Q04DX002 (ip), vehicle: saline with Tween-80
[10] = dose: 200.0 mg/kg/injection, schedule: Q04DX002 (ip), vehicle: saline with Tween-80
[11] = dose: 400.0 mg/kg/injection, schedule: Q04DX002 (ip), vehicle: saline with Tween-80
[12] = dose: 50.0 mg/kg/injection, schedule: Q01DX009 (ip), vehicle: saline
[13] = dose: 100.0 mg/kg/injection, schedule: Q01DX009 (ip), vehicle: saline
[14] = dose: 200.0 mg/kg/injection, schedule: Q01DX009 (ip), vehicle: saline
[15] = dose: 200.0 mg/kg/injection, schedule: Q01DX009 (ip), vehicle: saline with Tween-80
[16] = dose: 50.0 mg/kg/injection, schedule: Q01DX009 (ip), vehicle: Klucel (hydroxypropylcellulose) (HPC)
[17] = dose: 50.0 mg/kg/injection, schedule: Q01DX009 (ip), vehicle: saline with Tween-80
[18] = dose: 100.0 mg/kg/injection, schedule: Q01DX009 (ip), vehicle: saline with Tween-80
[19] = dose: 100.0 mg/kg/injection, schedule: Q01DX009 (ip), vehicle: Klucel (hydroxypropylcellulose) (HPC)
[20] = dose: 200.0 mg/kg/injection, schedule: Q01DX009 (ip), vehicle: Klucel (hydroxypropylcellulose) (HPC)

## CC(/C=N\NC(N)=O)=N/N=C(N)N
[1]
  T/C: 94 % of control
[2]
  T/C: 94 % of control
[3]
  T/C: 92 % of control

## COC(=O)C1c2ccccc2CC(=O)N1N (centres undefined)
dose: 6.25 mg/kg/injection, schedule: Q01DX009 (ip), vehicle: Klucel (hydroxypropylcellulose) (HPC)
  T/C: 102 % of control
[4]
  T/C: 100 % of control
[5]
  T/C: 100 % of control

## O=C(Nc1c(Cl)cccc1Cl)OCc1ccc2c(c1)OCO2
[6]
  T/C: 92 % of control
[7]
  T/C: 90 % of control
[8]
  T/C: 90 % of control

## CCN(CC)C1=C(C)C(C(=O)OC)=C(C(=O)OC)C12c1ccccc1-c1ccccc12
[6]
  T/C: 92 % of control
[7]
  T/C: 92 % of control
[8]
  T/C: 86 % of control

## C=C(C)C12CC(COC(=O)c3ccccc3)C34OC5(OC1C3C1OC1(COC(=O)CCCCCCCCCCCCCCC)C(O)C1(O)C(OC(=O)c3ccccc3)C(C)C(C(C)CCCCCCC5O)C14)O2 (centres undefined)
dose: 12.5 micrograms/kg/injection, schedule: Q01DX009 (ip), vehicle: saline
  T/C: 103 % of control
dose: 25.0 micrograms/kg/injection, schedule: Q01DX009 (ip), vehicle: saline
  T/C: 103 % of control
dose: 50.0 micrograms/kg/injection, schedule: Q01DX009 (ip), vehicle: saline
  T/C: 99 % of control

## CN(C)c1ccc2c(c1)Oc1cc(N(C)C)ccc1C21c2ccccc2C(=O)N1N
[9]
  T/C: 100 % of control
[10]
  T/C: 90 % of control
[11]
  T/C: 90 % of control

## CN(C)C(=S)OCC1OC(OC2(CO)OC(COC(=S)N(C)C)C(O)C2O)C(O)C(O)C1O (centres undefined)
dose: 60.0 mg/kg/injection, schedule: Q01DX005 (ip), vehicle: saline
  T/C: 100 % of control
dose: 120.0 mg/kg/injection, schedule: Q01DX005 (ip), vehicle: saline
  T/C: 103 % of control
dose: 240.0 mg/kg/injection, schedule: Q01DX005 (ip), vehicle: saline
  T/C: 103 % of control

## CC/C(=C(/CC)c1ccc(OC(=O)N(CCCl)CCCl)cc1)c1ccc(OC(=O)N(CCCl)CCCl)cc1
[12]
  T/C: 97 % of control
[13]
  T/C: 99 % of control
[14]
  T/C: 99 % of control

## CCN(CC)C(=O)c1cncc(C(N)=O)c1
[6]
  T/C: 110 % of control
[7]
  T/C: 111 % of control
[8]
  T/C: 101 % of control

## CC(=O)C(C(=O)CCSCC(N)C(=O)O)C(SCC(N)C(=O)O)c1ccc(Cl)c(Cl)c1 (centres undefined)
dose: 50.0 mg/kg/injection, schedule: Q01DX005 (ip), vehicle: saline
  T/C: 103 % of control
dose: 100.0 mg/kg/injection, schedule: Q01DX005 (ip), vehicle: saline
  T/C: 103 % of control
dose: 200.0 mg/kg/injection, schedule: Q01DX005 (ip), vehicle: saline
  T/C: 102 % of control

## N=c1ccn2c(n1)OC1C(O)C(COS(=O)OC3C(CO)OC4C3Oc3nc(=N)ccn34)OC12 (centres undefined)
[15]
  T/C: 112 % of control

## CC(=O)OC1OC(CS[As](C2CCCCC2)C2CCCCC2)C(OC(C)=O)C(OC(C)=O)C1OC(C)=O (centres undefined)
[4]
  T/C: 104 % of control and 111 % of control
[5]
  T/C: 104 % of control and 120 % of control
[16]
  T/C: 98 % of control and 101 % of control

## NC(CCCCNC(=S)S)C(=O)O.[Zn+2] (centres undefined)
dose: 50.0 mg/kg/injection, schedule: Q01DX005 (ip), vehicle: Klucel (hydroxypropylcellulose) (HPC)
  T/C: 107 % of control
dose: 100.0 mg/kg/injection, schedule: Q01DX005 (ip), vehicle: Klucel (hydroxypropylcellulose) (HPC)
  T/C: 107 % of control
dose: 200.0 mg/kg/injection, schedule: Q01DX005 (ip), vehicle: Klucel (hydroxypropylcellulose) (HPC)
  T/C: 107 % of control

## CN(C)C1=CC=C2C(=O)c3ccccc3C2(c2ccccc2)C=C1 (centres undefined)
[9]
  T/C: 89 % of control
[10]
  T/C: 88 % of control
[11]
  T/C: 89 % of control

## CCN([NH-])C(=S)[S-].CCN([NH-])C(=S)[S-].[Ni]
dose: 6.25 mg/kg/injection, schedule: Q04DX003 (ip), vehicle: Klucel (hydroxypropylcellulose) (HPC)
  T/C: 99 % of control
dose: 12.5 mg/kg/injection, schedule: Q04DX003 (ip), vehicle: Klucel (hydroxypropylcellulose) (HPC)
  T/C: 107 % of control
dose: 25.0 mg/kg/injection, schedule: Q04DX003 (ip), vehicle: Klucel (hydroxypropylcellulose) (HPC)
  T/C: 103 % of control

## O=C(/C=C/c1cccs1)c1ccc(O)c(C(=O)O)c1
dose: 25.0 mg/kg/injection, schedule: Q01DX009 (ip), vehicle: saline with Tween-80
  T/C: 96 % of control
[17]
  T/C: 105 % of control
[18]
  T/C: 103 % of control

## S=C1Cc2[nH]c(=S)sc(=S)c2C(=S)N1
[18]
  T/C: 87 % of control

## CNc1ccccc1C(=O)C(=O)O
[18]
  T/C: 105 % of control
[15]
  T/C: 102 % of control
dose: 400.0 mg/kg/injection, schedule: Q01DX009 (ip), vehicle: saline with Tween-80
  T/C: 100 % of control

## COc1cc(OC)c(NC(=S)Nc2cc(C)ccc2OC)cc1Cl
dose: 6.25 mg/kg/injection, schedule: Q01DX009 (ip), vehicle: DMSO
  T/C: 94 % of control
dose: 12.5 mg/kg/injection, schedule: Q01DX009 (ip), vehicle: DMSO
  T/C: 91 % of control
dose: 25.0 mg/kg/injection, schedule: Q01DX009 (ip), vehicle: DMSO
  T/C: 91 % of control
dose: 50.0 mg/kg/injection, schedule: Q01DX009 (ip), vehicle: DMSO
  T/C: 91 % of control and 93 % of control
dose: 100.0 mg/kg/injection, schedule: Q01DX009 (ip), vehicle: DMSO
  T/C: 87 % of control

## COc1cccc(C2NC(=S)NC(=O)C2C#N)c1 (centres undefined)
[16]
  T/C: 98 % of control
[19]
  T/C: 98 % of control
[20]
  T/C: 94 % of control

## CCC(=O)NC1=C(Cl)C(=O)C(NC(=O)CC)=C(Cl)C1=O
[16]
  T/C: 98 % of control
[19]
  T/C: 98 % of control

## CCOC(=O)C(C(=O)OCC)=C1C(=O)Nc2ccccc21
dose: 100.0 mg/kg/injection, schedule: Q04DX002 (ip), vehicle: Klucel (hydroxypropylcellulose) (HPC)
  T/C: 106 % of control
dose: 200.0 mg/kg/injection, schedule: Q04DX002 (ip), vehicle: Klucel (hydroxypropylcellulose) (HPC)
  T/C: 106 % of control
dose: 400.0 mg/kg/injection, schedule: Q04DX002 (ip), vehicle: Klucel (hydroxypropylcellulose) (HPC)
  T/C: 109 % of control

## CCC1CN1P(=O)(Oc1ccc2ccccc2c1)N1CC1CC (centres undefined)
dose: 44.0 mg/kg/injection, schedule: Q04DX003 (ip), vehicle: saline with Tween-80
  T/C: 104 % of control
[17]
  T/C: 173 % of control
dose: 66.0 mg/kg/injection, schedule: Q04DX003 (ip), vehicle: saline with Tween-80
  T/C: 109 % of control
[18]
  T/C: 155 % of control and 177 % of control
dose: 150.0 mg/kg/injection, schedule: Q01DX009 (ip), vehicle: saline with Tween-80
  T/C: 100 % of control
dose: 150.0 mg/kg/injection, schedule: Q04DX003 (ip), vehicle: saline with Tween-80
  T/C: 240 % of control
[15]
  T/C: 170 % of control

## Cc1ccc(S)c(S)c1
dose: 25.0 mg/kg/injection, schedule: Q01DX009 (ip), vehicle: saline
  T/C: 100 % of control
[12]
  T/C: 108 % of control
[13]
  T/C: 100 % of control and 106 % of control and 113 % of control
[14]
  T/C: 101 % of control
dose: 400.0 mg/kg/injection, schedule: Q01DX009 (ip), vehicle: saline
  T/C: 94 % of control
dose: 600.0 mg/kg/injection, schedule: Q01DX009 (ip), vehicle: saline
  T/C: 91 % of control

## [N-]=[N+]=Nc1cccc(Nc2c3ccccc3nc3ccccc23)c1
[16]
  T/C: 98 % of control
[19]
  T/C: 100 % of control
[20]
  T/C: 107 % of control

## C=[CH][Sn][CH2]CCC
[19]
  T/C: 112 % of control

## CS(=O)(=O)OCCCCCCCCCCCCCC1C=CCC1 (centres undefined)
[1]
  T/C: 99 % of control
[2]
  T/C: 103 % of control
[3]
  T/C: 99 % of control

## O[C@H]1c2cccn2-c2ccccc2S[C@H]1c1ccccc1
[6]
  T/C: 91 % of control
[7]
  T/C: 94 % of control
[8]
  T/C: 102 % of control

## O=c1[nH]cc(-c2ccccc2)c(=O)[nH]1
dose: 100.0 mg/kg/injection, schedule: Q01DX001 (ip), vehicle: Klucel (hydroxypropylcellulose) (HPC)
  T/C: 100 % of control
dose: 200.0 mg/kg/injection, schedule: Q01DX001 (ip), vehicle: Klucel (hydroxypropylcellulose) (HPC)
  T/C: 98 % of control
dose: 400.0 mg/kg/injection, schedule: Q01DX001 (ip), vehicle: Klucel (hydroxypropylcellulose) (HPC)
  T/C: 96 % of control
